From patent US20230302150A1, “ANTIBODY-TLR AGONIST CONJUGATES, METHODS AND USES THEREOF” (Ambrx, Inc., priority 2020, published 2023) come the findings set out here.

Read-outs that look alike come from different tables or passages of the source.

The test deals with T1, hTLR7 (Homo sapiens, UniProt Q9NYK1).
T1 construct: expressed in transfected cells; host or cells: HEK-Blue hTLR7 reporter cell line
T1 sequence (Q9NYK1 27-1049): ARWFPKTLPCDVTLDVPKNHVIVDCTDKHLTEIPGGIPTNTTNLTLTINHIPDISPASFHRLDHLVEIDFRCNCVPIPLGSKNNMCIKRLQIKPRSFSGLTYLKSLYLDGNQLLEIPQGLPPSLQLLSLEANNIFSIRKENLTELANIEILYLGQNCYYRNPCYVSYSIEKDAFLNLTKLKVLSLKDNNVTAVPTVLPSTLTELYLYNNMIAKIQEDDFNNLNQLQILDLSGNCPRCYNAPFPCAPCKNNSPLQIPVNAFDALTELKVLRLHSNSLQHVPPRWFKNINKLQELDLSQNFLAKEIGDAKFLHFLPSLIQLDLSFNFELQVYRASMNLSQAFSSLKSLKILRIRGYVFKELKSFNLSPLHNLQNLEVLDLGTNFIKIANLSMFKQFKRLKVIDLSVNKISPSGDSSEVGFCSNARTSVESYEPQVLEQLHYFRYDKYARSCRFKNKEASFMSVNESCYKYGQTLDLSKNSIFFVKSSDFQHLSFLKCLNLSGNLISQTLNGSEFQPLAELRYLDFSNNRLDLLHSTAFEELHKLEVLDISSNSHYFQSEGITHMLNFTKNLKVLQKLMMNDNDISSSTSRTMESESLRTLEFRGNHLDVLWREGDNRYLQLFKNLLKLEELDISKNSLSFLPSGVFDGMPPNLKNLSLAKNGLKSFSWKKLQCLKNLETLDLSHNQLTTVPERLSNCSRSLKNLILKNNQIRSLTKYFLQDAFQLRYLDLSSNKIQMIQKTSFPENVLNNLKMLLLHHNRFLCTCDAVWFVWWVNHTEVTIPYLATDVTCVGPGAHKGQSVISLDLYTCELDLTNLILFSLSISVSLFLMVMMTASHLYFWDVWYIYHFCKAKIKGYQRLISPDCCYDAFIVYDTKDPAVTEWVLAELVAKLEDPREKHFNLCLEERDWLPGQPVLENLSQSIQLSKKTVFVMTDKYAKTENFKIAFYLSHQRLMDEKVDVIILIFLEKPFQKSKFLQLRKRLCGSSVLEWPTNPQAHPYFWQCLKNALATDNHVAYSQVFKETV
Kind of test: HEK-Blue hTLR7 reporter assay (NF-kB-induced SEAP, Quanti-Blue). The format is cell-based. As for the experimental part: HEK-Blue™ hTLR7 cells were incubated in HEK-Blue™ Detection medium and stimulated with increasing concentrations of TLR7 or TLR8 or TLR7/8 agonists. […] The EC50 was determined from dose-response curve using Prism Software.
On the technique in general: A reporter such as luciferase makes a cellular process visible.

[1] abbreviates: Table 19, TLR7, drug-linkers with PEG shielding, read-out: EC50.
[2] abbreviates: Table 11, TLR7 activities, read-out: EC50.

Consider `CCCCc1nc2c(N)nc3ccccc3c2n1CCCCNC(=O)c1ccc(N)c(OC)c1` [AXC-725, 4-amino-N-(4-(4-amino-2-butyl-1H-imidazo[4,5-c]quinolin-1-yl)butyl)-3-methoxybenzamide], for which the EC50 (commonly the concentration needed to bring the measured effect to its halfway point) (Table 10, read-out: TLR7 EC50) is 249 nM.
For `CCCCOc1nc(N)c2[nH]c(=O)n(Cc3ccc(CN4CCC(CCNC(=O)[C@H](CCCNC(=N)N)NC(=O)CON)CC4)cc3)c2n1` [AXC-897, (S)—N-(2-(1-(4-((6-amino-2-butoxy-8-oxo-7H-purin-9(8H)-yl)methyl)benzyl)piperidin-4-yl)ethyl)-2-(2-(aminooxy)acetamido)-5-guanidinopentanamide], the EC50 (Table 13, TLR7, read-out: EC50) is 330 nM.
For `CCCCc1nc2c(N)nc3ccccc3c2n1CCCCNC(=O)c1ccc(N)c(F)c1` [AXC-778, 4-amino-N-(4-(4-amino-2-butyl-1H-imidazo[4,5-c]quinolin-1-yl)butyl)-3-fluorobenzamide], for the setting “Table 10, read-out: TLR7 EC50”, the EC50 came to 83.3 nM.
With `CCCCCC(=O)Nc1nc(OCCCC)nc2c1[nH]c(=O)n2Cc1ccc(CN2CCC(CCNC(=O)CON)CC2)cc1` [AXC-965, N-(9-(4-((4-(2-(2-(aminooxy)acetamido)ethyl)piperidin-1-yl)methyl)benzyl)-2-butoxy-8-oxo-8,9-dihydro-7H-purin-6-yl)hexanamide], the EC50 under setting [1] turned out to be 48.3 nM.
For the compound `CCCCOc1nc(N)c2[nH]c(=O)n(Cc3ccc(CN4CCC(CCNC(=O)[C@H](Cc5ccc(O)cc5)NC(=O)CON)CC4)cc3)c2n1` [AXC-953, (S)—N-(2-(1-(4-((6-amino-2-butoxy-8-oxo-7,8-dihydro-9H-purin-9-yl)methyl)benzyl)piperidin-4-yl)ethyl)-2-(2-(aminooxy)acetamido)-3-(4-hydroxyphenyl)propanamide], the EC50 under setting [1] stood at 201 nM.
Turning to `CCCCc1nc2c(N)nc3ccccc3c2n1CCCCNC(=O)c1cc(F)c(NC(=O)[C@H](C)NC(=O)CON)c(F)c1` [AXC-800, (S)—N-(4-(4-amino-2-butyl-1H-imidazo[4,5-c]quinolin-1-yl)butyl)-4-(2-(2-(aminooxy)acetamido)propanamido)-3,5-difluorobenzamide], the EC50 (Table 10, read-out: TLR7 EC50) was greater than 5000 nM.
As for `CCCCOc1nc(N)c2[nH]c(=O)n(Cc3ccc(CNC(=O)CON)cc3)c2n1` [AXC-862], the EC50 is 400 nM (Table 12, TLR7 agonists attached to a linker, read-out: TLR Agonist Payload + Linkers EC50); 400 nM (Table 15, drug linker, read-out: TLR Agonist + Linker (DL) - EC50); 121 nM (Table 15, pAF containing final metabolite, read-out: TLR Agonist + Linker + nnAA (DL-pAF) - EC50).
In the case of `CCCCOc1nc(N)c2[nH]c(=O)n(Cc3ccc(CN4CCCCC4)cc3)c2n1` [AXC-894, 6-amino-2-butoxy-9-(4-(piperidin-1-ylmethyl)benzyl)-7H-purin-8(9H)-one], the EC50 was 1670 nM (Table 13, TLR7, read-out: EC50); 2.1 nM (Table 14, read-out: TLR7 EC50); less than 10 nM (text to Table 14, TLR7, read-out: EC50).
Regarding `CCCCOc1nc(N)c2[nH]c(=O)n(Cc3ccc(CN4CCC(CCNC(=O)[C@H](CCCCN)NC(=O)CON)CC4)cc3)c2n1` [AXC-947, (S)-6-amino-N-(2-(1-(4-((6-amino-2-butoxy-8-oxo-7,8-dihydro-9H-purin-9-yl)methyl)benzyl)piperidin-4-yl)ethyl)-2-(2-(aminooxy)acetamido)hexanamide], the half-maximal effective concentration (EC50) under setting [1] was determined as 337 nM.
The same measure, in the same setting: the value for `CCCCOc1nc(N)c2[nH]c(=O)n(Cc3ccc(CN4CCC(CCNC(=O)[C@H](CCCCNC(=O)CCOCCOCCOCCOCCOCCOCCOCCOCCOCCOCCOCCOCCOCCOCCOCCOCCOCCOCCOCCOCCOCCOCCOCCOC)NC(=O)CON)CC4)cc3)c2n1` [AXC-949, (S)—N-(2-(1-(4-((6-amino-2-butoxy-8-oxo-7,8-dihydro-9H-purin-9-yl)methyl)benzyl)piperidin-4-yl)ethyl)-2-(2-(aminooxy)acetamido)-6-PEG24-amidohexanamide] was 760 nM.
On to `CCCCOc1nc(N)c2[nH]c(=O)n(Cc3ccc(CN4CCC(C5CCNCC5)CC4)cc3)c2n1` [AXC-898, 9-(4-(4,4′-bipiperidin-1-ylmethyl)benzyl)-6-amino-2-butoxy-7H-purin-8(9H)-oneone], for which the EC50 (Table 13, TLR7, read-out: EC50) was 50 nM.
`CCCCOc1nc(N)c2[nH]c(=O)n(Cc3ccc(CN4CCC(CCNC(=O)[C@H](CCCCNC(=O)CON)NC(=O)CCCC(=O)NCCOCCOCCOCCOCCOCCOCCOCCOCCOCCOCCOCCOCCOCCOCCOCCOCCOCCOCCOCCOCCOCCOCCOCCOCCOCCOCCOCCOCCOCCOCCOCCOCCOCCOCCOCCOCCOCCOCCOCCOCCOCCOCCOCCOCCOCCOCCOCCOC)CC4)cc3)c2n1` [AXC-936, (S)-N1-(1-((2-(1-(4-((6-amino-2-butoxy-8-oxo-7,8-dihydro-9H-purin-9-yl)methyl)benzyl)piperidin-4-yl)ethyl)amino)-6-(2-(aminooxy)acetamido)-1-oxohexan-2-yl)-N5-(PEG48)-glutaramide]: under setting [1], the EC50 worked out at 764 nM.
For the compound `NCCC1CCN(Cc2ccc(Cn3ccc4c5nc(N)ncc5ccc43)cc2)CC1` [AXC-969, 7-(4-((4-(2-aminoethyl)piperidin-1-yl)methyl)benzyl)-7H-pyrrolo[2,3-h]quinazolin-2-amine], the EC50 (Core 3 compounds, assay not given, read-out: EC50) is greater than 10000 nM.
For `CCCCOc1nc(N)c2[nH]c(=O)n(Cc3ccc(CN4CCC(CCNC(=O)[C@H](CCCCNC(=O)CCCC(=O)NCCOCCOCCOCCOCCC(=O)NC(COCCC(=O)NCCOCCOCCOCCOCCOCCOCCOCCOC)(COCCC(=O)NCCOCCOCCOCCOCCOCCOCCOCCOC)COCCC(=O)NCCOCCOCCOCCOCCOCCOCCOCCOC)NC(=O)CON)CC4)cc3)c2n1` [AXC-952, (S)—N-(2-(1-(4-((6-amino-2-butoxy-8-oxo-7,8-dihydro-9H-purin-9-yl)methyl)benzyl)piperidin-4-yl)ethyl)-2-(2-(aminooxy)acetamido)-6-(dPEG4-(m-dPEG8)3)hexanamide], under setting [1], the EC50 is 1020 nM.
Take `CCCCOc1nc(N)c2[nH]c(=O)n(Cc3ccc(CN4CCC(CCNC(=O)[C@@H](CCCCN)NC(=O)CON)CC4)cc3)c2n1` [AXC-958, (R)-6-amino-N-(2-(1-(4-((6-amino-2-butoxy-8-oxo-7,8-dihydro-9H-purin-9-yl)methyl)benzyl)piperidin-4-yl)ethyl)-2-(2-(aminooxy)acetamido)hexanamide]: the EC50 under setting [1] was found to be 39.6 nM.
On to `CCCCOc1nc(NC(=O)CCOCCOCCOC)c2[nH]c(=O)n(Cc3ccc(CN4CCC(CCN)CC4)cc3)c2n1` [AXC-982, N-(9-(4-((4-(2-aminoethyl)piperidin-1-yl)methyl)benzyl)-2-butoxy-8-oxo-8,9-dihydro-7H-purin-6-yl)-3-(2-(2-methoxyethoxy)ethoxy)propanamide], for which the EC50 under setting [1] is 19.1 nM.
On to `CCCCOc1nc(N)c2[nH]c(=O)n(Cc3ccc(CN4CCC(CCN)CC4)cc3)c2n1` [AXC-878, 6-amino-9-(4-((4-(2-aminoethyl)piperidin-1-yl)methyl)benzyl)-2-butoxy-7H-purin-8(9H)-one], for which, under setting [2], the EC50 was found to be 50.4 nM.
As for `CCCCc1nc2c(N)nc3ccccc3c2n1CCCCNC(=O)c1ccc(N2CCCC2)cc1` [AXC-777, N-(4-(4-amino-2-butyl-1H-imidazo[4,5-c]quinolin-1-yl)butyl)-4-(pyrrolidin-1-yl)benzamide], the EC50 (Table 10, read-out: TLR7 EC50) turned out to be 910 nM.
On to `CCCCOc1nc(N)c2[nH]c(=O)n(Cc3ccc(CN4CCC(CCNC(=O)[C@@H](N)CCCNC(=N)N)CC4)cc3)c2n1` [AXC-892, (S)-2-amino-N-(2-(1-(4-((6-amino-2-butoxy-8-oxo-7H-purin-9(8H)-yl)methyl)benzyl)piperidin-4-yl)ethyl)-5-guanidinopentanamide], for which the EC50 (Table 13, TLR7, read-out: EC50) worked out at 73 nM.
In the case of `CCCCOc1nc(N)c2[nH]c(=O)n(Cc3ccc(CN4CCC(CCNC(=O)C(C)(C)C)CC4)cc3)c2n1` [AXC-885, N-(2-(1-(4-((6-amino-2-butoxy-8-oxo-7H-purin-9(8H)-yl)methyl)benzyl)piperidin-4-yl)ethyl)pivalamide], the EC50 under setting [2] is 11.3 nM.
Consider `CCCCc1nc2c(N)nc3ccccc3c2n1CCCCNC(=O)c1cc(F)c(N)c(F)c1` [AXC-779, 4-amino-N-(4-(4-amino-2-butyl-1H-imidazo[4,5-c]quinolin-1-yl)butyl)-3,5-difluorobenzamide], for which the half-maximal effective concentration (EC50) (Table 10, read-out: TLR7 EC50) stood at 242 nM.
Take `CCCCOc1nc(N)c2[nH]c(=O)n(Cc3ccc(CN4CCC(CCNC(=O)[C@H](C)NC(=O)CON)CC4)cc3)c2n1` [AXC-896, (S)—N-(2-(1-(4-((6-amino-2-butoxy-8-oxo-7H-purin-9(8H)-yl)methyl)benzyl)piperidin-4-yl)ethyl)-2-(2-(aminooxy)acetamido)propanamide]: under “Table 13, TLR7, read-out: EC50”, the EC50 amounted to 325 nM.
